{"source": "patent US20120190751A1", "about": "“COMPOUNDS FOR TREATMENTS OF INFLAMMATION” (ANA-MAR AB, priority 2009, published 2012)", "key": {"5-HT5A receptor": {"target": "5-HT5A receptor (Homo sapiens, UniProt P47898)", "sequence (P47898 whole entry)": "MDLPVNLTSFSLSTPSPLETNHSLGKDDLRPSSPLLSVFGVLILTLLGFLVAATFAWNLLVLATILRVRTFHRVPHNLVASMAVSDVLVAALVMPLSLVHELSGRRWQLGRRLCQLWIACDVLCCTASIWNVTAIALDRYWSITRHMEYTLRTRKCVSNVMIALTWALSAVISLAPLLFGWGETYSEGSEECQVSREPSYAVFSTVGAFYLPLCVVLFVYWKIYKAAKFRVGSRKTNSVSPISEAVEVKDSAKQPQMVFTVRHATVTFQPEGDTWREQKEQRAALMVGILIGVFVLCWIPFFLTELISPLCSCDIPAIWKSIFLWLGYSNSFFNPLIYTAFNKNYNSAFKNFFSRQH", "assay": "Radio-ligand binding assay 5-HT5A", "conditions": "10 μM compound; [3H] LSD 1 nM; human rec. HEK293 cells", "procedure": "(§1) Determination of binding affinities for various 5-HT receptors was performed by radio-ligand binding assays. Briefly, tissue or cells expressing the receptor of interest were suspended in incubation buffer and radio-ligands and 10 μM N-(2-chloro-3,4-dimethoxybenzylidene-amino)guanidine were added. After incubation, separation of bound and free radio-ligand was done by multiple washings with buffer.\n(§2) The results were presented as the percent inhibition of specific binding. The IC50 values were determined by a non-linear least square regression analysis using MathIQ™ (ID Business Solution Ltd., UK). The inhibition constants (Ki) were calculated using the equation of Cheng and Prusoff (Cheng Y, Prusoff W H, Biochem. Pharmacol. 22:3099-3108, 1973) using the observed IC50 of the tested compound, the concentration of radioligand employed in the assay and the historical values for the KD of the ligand."}, "5-HT6 receptor": {"target": "5-HT6 receptor (Homo sapiens, UniProt P50406)", "sequence (P50406 whole entry)": "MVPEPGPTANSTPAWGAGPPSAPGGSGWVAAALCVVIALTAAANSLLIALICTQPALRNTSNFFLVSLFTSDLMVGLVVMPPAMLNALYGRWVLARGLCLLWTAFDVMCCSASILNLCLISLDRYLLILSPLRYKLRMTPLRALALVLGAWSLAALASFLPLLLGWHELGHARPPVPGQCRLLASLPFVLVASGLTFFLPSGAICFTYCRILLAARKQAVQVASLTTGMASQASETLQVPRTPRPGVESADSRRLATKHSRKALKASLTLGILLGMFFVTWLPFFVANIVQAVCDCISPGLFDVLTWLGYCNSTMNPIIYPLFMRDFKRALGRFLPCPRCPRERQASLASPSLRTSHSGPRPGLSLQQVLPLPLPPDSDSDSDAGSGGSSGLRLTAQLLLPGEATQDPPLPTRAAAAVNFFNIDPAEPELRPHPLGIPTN", "assay": "Radio-ligand binding assay 5-HT6", "conditions": "10 μM compound; [3H] LSD 1.5 nM; human rec. HEK293 cells", "procedure": "as §1, §2"}, "rat synoviocytes": {"tested_on": "rat synoviocytes", "assay": "IL-6 release from LPS-stimulated rat synoviocytes", "type": "cell-based", "conditions": "72 hours", "procedure": "Pannus from the inflamed knee of rats with antigen-induced arthritis (AIA) (see description of this model below; Andersson, S. E et al., (1998), J. Rheumatology 25: 1772-1777) was isolated three to five days after challenge, stored in PBS supplemented with 100 U/ml Penicillin-Streptomycin (PEST, Invitrogen Corporation) and 2.5 μg/ml Fungizone (Amphotericin B, Invitrogen) until it was further processed within a couple of hours. The PBS was discarded and the tissue cut in small pieces followed by digestion in a collagenase solution (400 U/ml; type 1 CLS-1, Worthington) for 3 hours at 37° C., 5% CO2. The suspension was filtered through a nylon mesh (70 μm), washed with tissue culture medium (RPMI-1640 with L-glutamine, Invitrogen, supplemented with 10% fetal bovine serum (FBS) and 100 U/ml PEST and 2.5 μg/ml Fungizone) and centrifuged (257 g). The cells were resuspended in tissue culture medium and seeded in cell culture flasks (T25, TPP). After overnight culture, nonadherent cells were removed by exchanging the medium, the cells were incubated at 37° C., 5% CO2, the medium was exchanged every third day until confluence was reached (7-10 days). The culture consisted of a mixed cell population with the principal constituents being fibroblasts and macrophages (Andersson, S. E. et al. (2000), Eur. J. Pharm. Sci 9: 333-343).\nThe cells were counted and reseeded at a density of 10000 cells/0.2 ml in 96-well cell culture plates (Nunc). After overnight culture the cells were stimulated with 50 ng/ml Lipopolysaccharide (LPS, E. coli 055:B5, Sigma) with simultaneous addition of 0.1, 1 and 10 μM N-(2-chloro-3,4-dimethoxybenzylideneamino)guanidine and 1 μM of 5-HT2 receptor agonists (triplicates). The cells were incubated for 72 hours after which the supernatants were collected and analyzed for IL-6 (OptEIA™ Set Rat IL-6). The effect of treatment on cell viability was determined using the cell proliferation reagent, WST-1 (Roche Diagnostics).\nInflamed knee joints of rats with antigen-induced arthritis (AIA) were dissected four days after intra-articular challenge with antigen. Freshly isolated pannus tissue was collected in phosphate-buffered saline (PBS) supplemented with 100 U/ml penicillin, streptomycin (PEST, Invitrogen) and 2.5 μg/ml Fungizone (Amphotericin B, Invitrogen), finely minced with a pair of scissors and digested with 400 U/ml collagenase (type 1 CLS-1, Worthington) in RPMI 1640 (Gibco) supplemented with PEST and fungizone (2.5 μg/ml) for 3 hours. The cell suspension was filtered through a 70 μm nylon mesh and the cells collected by centrifugation at 257×g, 10 min. The cells were resuspended in RPMI 1640 supplemented with 10% FBS (Gibco), PEST and fungizone (culture medium), plated in T25 flasks (TPP Cat#90026). After overnight incubation nonadherent cells were removed and the culture medium was replaced every third day until the cells approached confluency (normally achieved within 7-10 days). At near-confluency, the cells were washed with PBS and harvested by trypsination. After washing in PBS the cells were resuspended in culture medium and seeded at 10.000 cells/well/0.2 ml in 96 well plates (Nunc cat#167008). After overnight culture the culture medium was replaced with fresh medium and 50 ng/ml LPS (Sigma, L6529) together with different concentrations of 5-HT, 5-HT2 receptor agonists and/or antagonists and N-(2-chloro-3,4-dimethoxybenzylideneamino)guanidine. The cells were incubated for 72 hours after which the supernatants were collected and analyzed for IL-6 (BD OptEIA™ Set). The effect of treatment on cell viability was determined using the cell proliferation reagent, WST-1 (Roche Diagnostics). In another experiment rat synoviocytes were incubated with 50 ng/ml LPS for 2 or 22 hours were after the levels of 5-HT was analysed in the cell culture medium using a Serotonin ELISA kit (IBL International, RE59121). We also incubated rat synoviocytes with 5-HT (10 μM) and measured the gene expression of 5-HT2B and 5-HT2C."}, "5-HT1A receptor": {"target": "T1, 5-HT1A receptor (Homo sapiens, UniProt P08908)", "T1 sequence (P08908 1-422)": "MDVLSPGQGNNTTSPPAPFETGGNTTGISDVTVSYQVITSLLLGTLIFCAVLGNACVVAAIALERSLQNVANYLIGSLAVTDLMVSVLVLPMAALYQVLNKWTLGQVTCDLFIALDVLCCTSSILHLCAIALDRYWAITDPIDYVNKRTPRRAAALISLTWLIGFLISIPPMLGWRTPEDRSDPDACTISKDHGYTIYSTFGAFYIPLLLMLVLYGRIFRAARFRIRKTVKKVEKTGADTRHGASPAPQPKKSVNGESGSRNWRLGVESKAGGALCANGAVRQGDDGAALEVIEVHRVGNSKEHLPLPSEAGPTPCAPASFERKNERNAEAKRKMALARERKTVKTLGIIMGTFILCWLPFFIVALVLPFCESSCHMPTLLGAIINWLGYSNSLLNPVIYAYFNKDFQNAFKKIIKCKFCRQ", "assay": "Radio-ligand binding assay 5-HT1A", "conditions": "10 μM compound; [3H]-8-OH-DPAT 0.5 nM; human rec. HEK293 cells", "procedure": "as §1, §2"}}, "note": "Entries after “also recorded” stand apart in the source; their conditions may differ."}
{"smiles": "COc1ccc(C=NNC(=N)N)c(Cl)c1OC", "note": "[N-(2-chloro-3,4-dimethoxybenzylideneamino)guanidine]", "values": [{"measurement": "inhibition at 10 µM", "setting": "5-HT5A receptor", "value": 54, "unit": "%"}, {"measurement": "inhibition at 10 µM", "setting": "5-HT6 receptor", "value": 2.6, "unit": "%"}, {"measurement": "IL-6 release induced by 5-HT and LPS", "setting": "rat synoviocytes; 1 μM 5-HT + LPS 50 ng/ml, test substance 0.1, 1 or 10 μM, FIG. 7A", "value": "reduces the IL-6 response"}, {"measurement": "IL-6 production induced by BW 723C86 (5-HT2B agonist) and LPS", "setting": "rat synoviocytes; 1 μM BW 723C86 + LPS 50 ng/ml, compound 0.1, 1, 10 μM, FIG. 4, FIG. 7B", "value": "in a dose-dependent way is counteracted; also recorded: reversed the effects"}, {"measurement": "IL-6 production induced by CP 809101 (5-HT2C agonist) and LPS", "setting": "rat synoviocytes; 1 μM CP 809101 + LPS 50 ng/ml, compound 0.1, 1, 10 μM, FIG. 4, FIG. 7B", "value": "is counteracted; also recorded: reversed the effects"}, {"measurement": "inhibition at 10 µM", "setting": "5-HT1A receptor", "value": 17, "unit": "%"}]}
